The text below walks through data of patent US20240287062A1, “NAPHTHYRIDONE COMPOUNDS FOR INHIBITION OF RAF KINASES AND/OR BCR-ABL TYROSINE KINASES” (Enliven Inc., priority 2021, published 2024).

What all share (test): Radioactivity-based ABL kinase assay
What all share (assay type): biochemical
What all share (details): 100 μM 33P-ATP

One test has as its target ABL1 (G250E) (Homo sapiens (Human), UniProt P00519, G250E). The procedure: (§1) The following kinase assay was based on Anastassiadis et al (2011) Nat Biotech, 29:1039-1045. Briefly, ABL kinase substrate (ABLtide: EAIYAAPFAKKK; Genscript) was freshly prepared in reaction buffer (20 mM HEPES pH 7.5, 10 mM MgCl2, 1 mM EGTA, 0.02% Brij-35, 0.02 mg/ml BSA, 0.1 mM Na3VO4, 2 mM DTT, and 1% DMSO) to a final substrate concentration of 20 μM. ABL wild type and ABL mutant kinases were added to the substrate solution and mixed to the final enzyme concentrations shown in Table 3 below.
(§2) Serial dilutions of compounds were prepared in 100% DMSO Compounds or DMSO only (vehicle control) were then added to the kinase reaction mixture and incubated for 20 minutes at room temperature. 100 μM ^33P-ATP (specific activity 10 μCi/μl) was then added to the kinase reaction mixture to initiate the kinase reaction. This mixture was incubated for 2 hours at room temperature. Radioactivity was then measured by radioisotope filter-binding. Kinase activity data were expressed as the percent remaining kinase activity in test samples compared to vehicle control reactions. IC50 values and curve fits were obtained using a nonlinear regression model with a sigmoidal dose response (Prism GraphPad Software).

In the next test the target is ABL1 (Y253H) (Homo sapiens (Human), UniProt P00519, Y253H). The procedure:
as §1, §2

For another test, the target named is ABL1 (F317I) (Homo sapiens (Human), UniProt P00519, F317I). The procedure:
as §1, §2

The term IC50 denotes the point on the concentration scale where inhibition reaches its midpoint. With `Cc1c(F)cncc1-c1cc2cnc(NC(=O)C3CC3)cc2n(C)c1=O` [Compound 2, N-[3-(5-fluoro-4-methylpyridin-3-yl)-1-methyl-2-oxo-1,6-naphthyridin-7-yl]cyclopropanecarboxamide], the half-inhibitory concentration (IC50) on ABL1 (G250E) is 1.5 nM; at ABL1 (Y253H) it was 0.93 nM; at ABL1 (F317I), 47 nM.
The matching figures for `Cc1c(F)cncc1-c1cc2cnc(NC(=O)[C@@H]3C[C@@H]3F)cc2n(C)c1=O` [Compound 28, (1S,2S)-2-fluoro-N-[3-(5-fluoro-4-methylpyridin-3-yl)-1-methyl-2-oxo-1,6-naphthyridin-7-yl]cyclopropane-1-carboxamide]: 3.7 nM, 3.6 nM and 114 nM.
